Results: patent KR20140041632A, “제주조릿대 잎 추출물 또는 그로부터 분리된 파라-쿠마르산을 이용한 비만 및 지방간 개선제 조성물” (제주대학교 산학협력단, priority 2014, dated 2014)
Entries after “also recorded” stand apart in the source; their conditions may differ.

Experiments:
[1] = system: 3T3-L1 preadipocytes [3T3-L1 전구지방세포]; assay: Inhibition of differentiation of 3T3-L1 preadipocytes into adipocytes (Oil Red O); type: cell-based; conditions: 3T3-L1, 100uM, treatment Day4 ~ Day8, Oil Red O 540nm; Fig. 11
LKB1 = assay: Western blot of p-LKB1 in differentiated 3T3-L1 adipocytes; type: cell-based; conditions: Fig. 12
AMPK [2] = assay: Western blot of p-AMPK in differentiated 3T3-L1 adipocytes; type: cell-based; conditions: Fig. 12
ACC [3] = assay: Western blot of p-ACC in differentiated 3T3-L1 adipocytes; type: cell-based; conditions: Fig. 12
AMPK [4] = assay: Western blot of p-AMPK in differentiated L6 cells; type: cell-based, rat; conditions: 48 h, Fig. 13
ACC [5] = assay: Western blot of p-ACC in differentiated L6 cells; type: cell-based, rat; conditions: 48 h, Fig. 13
PPARα = assay: Western blot of PPARα in differentiated L6 cells; type: cell-based, rat; conditions: 48 h, vs control, Fig. 14
AMPK [6] = assay: Western blot of p-AMPK in HepG2 cells with induced fat accumulation; type: cell-based; conditions: HepG2, oleic acid 600uM, 24 h; Fig. 15
ACC [7] = assay: Western blot of p-ACC in HepG2 cells with induced fat accumulation; type: cell-based; conditions: HepG2, oleic acid 600uM, 24 h; Fig. 15
[8] = several concentrations, vs control

In the case of `O=C(O)/C=C/c1ccc(O)cc1` [p-쿠마르산, p-coumaric acid], the “TG content / triglyceride accumulation” value [1] is reported as “유의적으로 감소; also recorded: 중성지방의 축적을 억제”, the LKB1 phosphorylation (LKB1) is reported as “증가 and 농도 의존적으로 LKB1의 인산화, AMPK의 인산화 및 ACC의 인산화를 증가시킴” and the AMPK phosphorylation (AMPK [2]) is reported as “증가 and 농도 의존적으로 LKB1의 인산화, AMPK의 인산화 및 ACC의 인산화를 증가시킴”. For the same compound, the ACC phosphorylation (ACC [3]) was “증가 and 농도 의존적으로 LKB1의 인산화, AMPK의 인산화 및 ACC의 인산화를 증가시킴”, the “AMPK phosphorylation at highest concentration” value (AMPK [4]; 50uM) was “현저한 증가” and the AMPK phosphorylation (AMPK [4]; [8]) was “농도의존적으로 증가; also recorded: 농도 의존적으로 AMPK 및 ACC의 인산화를 증가시킴”. For the same compound, the “ACC phosphorylation at highest concentration” value (ACC [5]; 50uM) was “현저한 증가”, the ACC phosphorylation (ACC [5]; [8]) was “농도의존적으로 증가; also recorded: 농도 의존적으로 AMPK 및 ACC의 인산화를 증가시킴” and the PPARα expression (PPARα) was “증가 and 농도 의존적으로 PPARα 발현을 증가시킴”. The AMPK phosphorylation (AMPK [6]) was “농도의존적으로 증가; also recorded: 농도 의존적으로 AMPK 및 ACC의 인산화를 증가시킴” and the ACC phosphorylation (ACC [7]) was “농도의존적으로 증가; also recorded: 농도 의존적으로 AMPK 및 ACC의 인산화를 증가시킴”.
